Patent US5075464A, “17β-(cyclopropylamino)androstene derivatives” (Merrell Dow Pharmaceuticals Inc., priority 1989, dated 1991)

Target: T1, enzymes in the synthesis of aldosterone (Rattus norvegicus, UniProt P30099)
T1 construct: adrenal capsule/glomerulosa homogenates were prepared (6 mg/ml); from tissue; host or cells: adrenal capsule/glomerulosa of sodium-deficient young male Sprague-Dawley rats (homogenate, 500xg supernatant)
Test: inhibition of aldosterone formation from [3H]-DOC in adrenal capsule/glomerulosa homogenates
Format: biochemical, Sprague-Dawley rats
Conditions: Kitz-Wilson plots, rat adrenal capsule/glomerulosa homogenate
Description: Young male Sprague-Dawley rats were maintained on a sodium-deficient diet for about two weeks prior to use. From these animals, adrenal capsule/glomerulosa homogenates were prepared (6 mg/ml) in pH 7.4 assay buffer [MgCl2 8.5 mM, CaCl2 2.7 mM, KCl 3.13 mM, NaCl 7.591 mM, TRIS 50 mM and 0.1% triethylamine] and centrifuged 500xg for 10 minutes.
Assays were conducted in 35 ml glass tubes maintained at 25° C. in a Dubnoff shaker with 95% O2 /5% CO2. The tubes contained the following material: 100 μl of an NADPH+ generating system, 300 μl of adrenal capsular/glomerulosa cytosol, and 50 μl of test compound or buffer (control). After initial preincubation intervals of 20 minutes, the 10-minute assay was started by the addition of 50 μl of tritium-labelled substrate, i.e., 1 μM [^3 H]-DOC. Reactions were quenched by the addition of 5 ml of ethyl acetate and non-radiolabelled steroids were also added. […]
Substrate remaining and products formed were monitored by UV absorbance at 246 nm and the amount of steroid compound present was quantified by [^3 H] radioactivity. […] The Ki time-dependent inhibition and the t1/2 for enzyme inactivation at infinite inhibitor concentration (t50) was determined by the linear regression analyses of t1/2 vs. 1/[I] data of Kitz-Wilson plots Using this procedure, the following results were observed: […]

| SMILES | t50 (t1/2 for enzyme inactivation at infinite inhibitor concentration) [min] |
| --- | --- |
| CN(C1CC1)[C@H]1CC[C@H]2[C@@H]3CCC4=CC(=O)CC[C@]4(C)[C@H]3CC[C@]12C [17β-[N-methyl(cyclopropylamino)]androst-4-en-3-one] | 15.4 |
| CN(C1CC1)[C@H]1CC[C@H]2[C@@H]3CC=C4C[C@@H](O)CC[C@]4(C)[C@H]3CC[C@]12C [17β-[N-methyl(cyclopropylamino)]androst-5-en-3β-ol] | 9.0 |
